Values quoted from earlier work in patent US20250364101A1, “Dabigatran Dosing” (Closed Loop Medicine Ltd, priority 2023, published 2025).
Where two headings read alike, the source gives them in different places.

Experiments:
[1] = not given; remark: listed apart in the source
[2] = not given; remark: listed apart in the source

Structure (SMILES)	Change in Drug Level Exposure (AUC), increase (Amiodarone)	Change in Drug Level Exposure (AUC) (CrCl = 30, relative to median CrCl of 69)	Change in Drug Level Exposure (AUC) (CrCl = 50, relative to median CrCl of 69)	Change in Drug Level Exposure (AUC), decrease (PPIs)	Change in Drug Level Exposure (AUC), increase (South Asians compared to other ethnicities)	Change in Drug Level Exposure (AUC), increase (Verapamil)	increase in distribution volume (Vd) (above 80 kg)	Change in activity: bleeding (coadministration of Asprin, clopidogrel)	Change in Drug Level Exposure (AUC), increase (females compared to men)	effect of low weight on Cmax (low weight)	Change in Drug Level Exposure (AUC), increase per year of age (older compared to 72 yr)	Change in Drug Level Exposure (AUC), increase (patients with HF)	accumulation of the drug ([1]; daily doses of approximately 150-300 mg)	elimination via the kidney as share of total clearance ([1]; in vivo)	remainder going into the faeces ([1]; oral)	relationship between maximal plasma level and dose administered ([1]; single dose)	effect of food on total absorption ([1]; with food)	risk of intracranial bleeds ([2]; compared with adjusted-dose warfarin)	outcome compared with warfarin ([2]; patients with nonvalvular AF)
[H]/N=C(/N)c1ccc(NCc2nc3cc(C(=O)N(CCC(=O)O)c4ccccn4)ccc3n2C)cc1 [dabigatran]	12% increase	1.8 fold	1.3 fold	~13% decrease	~26% increase in South Asians compared to other ethnicities	23% increase	0.8 % per kg	Coadministration will increase chance of bleeding	~9% increase in females compared to men	will increase	0.41% increase per year older compared to 72 yr % per year	~7% increase in patients with HF	approximately 1.7 fold	80%	~90%	linear relationship	does not affect		
CCCCCCOC(=O)NC(=N)c1ccc(NCc2nc3cc(C(=O)N(CCC(=O)OCC)c4ccccn4)ccc3n2C)cc1 [Dabigatran etexilate]																		small reduction	superior to warfarin
